# Laboratory results: patent US10294202B2, “Pyrrolidinones as herbicides” (FMC Corporation, priority 2013, dated 2019)
# Legend:
# Assay in all cases: Test C pre-/postemergence herbicide test
# wheat (winter wheat) = assay type: in vivo, Triticum aestivum
# Procedure, shortened: (§1)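 Pre-emergence: seeds sown in loam/sand blend and treated with compound in surfactant-containing solvent. Post-emergence: plants at 2–18 cm (1- to 4-leaf stage) in peat-based medium sprayed with the same formulation. Visual rating versus controls after 13–15 days in greenhouse, scale 0 (no effect) to 100 (complete control).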
# waterhemp = assay type: in vivo, Amaranthus rudis
# Text: (§2) Seeds of plant species selected from blackgrass (Alopecurus myosuroides), ryegrass, Italian (Italian ryegrass, Lolium multiflorum), wheat (winter wheat, Triticum aestivum), galium (catchweed bedstraw, Galium aparine), corn (Zea mays), crabgrass, large (large crabgrass, Digitaria sanguinalis), foxtail, giant (giant foxtail, Setaria faberii), johnsongrass (Sorghum halepense), lambsquarters (Chenopodium album), morningglory (Ipomoea coccinea), nutsedge, yellow (yellow nutsedge, Cyperus esculentus), pigweed (Amaranthus retroflexus), ragweed (common ragweed, Ambrosia elatior), soybean (Glycine max), barnyardgrass (Echinochloa crus-galli), oilseed rape (Brassica napus), waterhemp (common waterhemp, Amaranthus rudis), kochia (Kochia scoparia), oat, wild (wild oat, Avena fatua), surinam grass (Brachiaria decumbens), foxtail, green (green foxtail, Setaria viridis), goosegrass (Eleusine indica), bromegrass, downy (downy bromegrass, Bromus tectorum), nightshade (eastern black nightshade, Solanum ptycanthum), cocklebur (common cocklebur, Xanthium strumarium), cupgrass, woolly (woolly cupgrass, Eriochloa villosa), bermudagrass (Cynodon dactylon), sunflower, (common oilseed sunflower, Helianthus annuus), Russian thistle (Salsola kali) and velvetleaf (Abutilon theophrasti) were planted into a blend of loam soil and sand and treated preemergence with test chemicals formulated in a non-phytotoxic solvent mixture which included a surfactant. At the same time, plants selected from these crop and weed species and also barley (winter barley, Hordeum vulgare), […]), chickweed (common chickweed, Stellaria media), deadnettle (henbit deadnettle, Lamium amplexicaule), and canarygrass (littleseed canarygrass, Phalaris minor) were planted in pots containing Redi-Earth® planting medium (Scotts Company, 14111 Scottslawn Road, Marysville, Ohio 43041) comprising spaghnum peat moss, vermiculite, wetting agent and starter nutrients and treated with postemergence applications of test chemicals formulated in the same manner. Plants ranged in height from 2 to 18 cm (1- to 4-leaf stage) for postemergence treatments. Treated plants and controls were maintained in a greenhouse for 13 to 15 days, after which time all species were compared to controls and visually evaluated. Plant response ratings, summarized in Table C, are based on a scale of 0 to 100 where 0 is no effect and 100 is complete control. A dash (-) response means no test result.
# morningglory = assay type: in vivo, Ipomoea coccinea
# Procedure, shortened: as §1
# johnsongrass = assay type: in vivo, Sorghum halepense
# Text: as §2
# velvetleaf = assay type: in vivo, Abutilon theophrasti
# Text: as §2
# [1] = Postemergence, 31 g ai/ha, scale 0 to 100 (0 no effect, 100 complete control)
# [2] = Postemergence, 62 g ai/ha, scale 0 (no effect) to 100 (complete control)
# [3] = Postemergence, 125 g ai/ha, scale 0 to 100 (0 no effect, 100 complete control)
# [4] = Postemergence, 250 g ai/ha, scale 0 to 100 (0 no effect, 100 complete control)
# [5] = Preemergence, 31 g ai/ha, scale 0 to 100, 0 is no effect and 100 is complete control
# [6] = Preemergence, 62 g ai/ha, scale 0 to 100
# [7] = Preemergence, 125 g ai/ha, scale 0 to 100 (0 no effect, 100 complete control)
# [8] = Preemergence, 62 g ai/ha, scale 0 to 100 (0 no effect, 100 complete control)
# [9] = Postemergence, 16 g ai/ha, scale 0 to 100 (0 no effect, 100 complete control)
# [10] = Preemergence, 16 g ai/ha, scale 0 to 100
# [11] = Preemergence, 125 g ai/ha, scale 0 to 100
smiles,measurement,setting,value
O=C1NCC(c2ccc(F)cc2)C1C(=O)Nc1cccc(F)c1F (racemic) [Compound 119],"Plant response rating, Wheat",wheat (winter wheat); [1],0
same,"Plant response rating, Wheat",wheat (winter wheat); [2],0
same,"Plant response rating, Wheat",wheat (winter wheat); [3],0
same,"Plant response rating, Wheat",wheat (winter wheat); [4],0
same,Wheat plant response rating,wheat (winter wheat); [5],5
same,"Plant response rating, Wheat",wheat (winter wheat); [6],5
same,"Plant response rating, Wheat",wheat (winter wheat); [7],60
same,"Plant response rating (scale of 0 to 100), Wheat","wheat (winter wheat); Preemergence, 250 g ai/ha",90
same,"Plant response rating, Waterhemp",waterhemp; [1],0
same,"Plant response rating, Waterhemp",waterhemp; [2],0
same,"Plant response rating, Waterhemp",waterhemp; [3],0
same,"Plant response rating, Waterhemp",waterhemp; [4],40
same,Waterhemp plant response rating,waterhemp; [5],20
same,"Plant response rating, Waterhemp",waterhemp; [6],65
same,"Plant response rating, Waterhemp",waterhemp; [7],70
same,"Plant response rating (scale of 0 to 100), Waterhemp","waterhemp; Preemergence, 250 g ai/ha",80
same,"Plant response rating, Morningglory",morningglory; [1],0
same,"Plant response rating, Morningglory",morningglory; [2],0
same,"Plant response rating, Morningglory",morningglory; [3],5
same,"Plant response rating, Morningglory",morningglory; [4],5
same,Morningglory plant response rating,morningglory; [5],0
same,"Plant response rating, Morningglory",morningglory; [6],0
same,"Plant response rating, Morningglory",morningglory; [7],35
same,"Plant response rating (scale of 0 to 100), Morningglory","morningglory; Preemergence, 250 g ai/ha",35
same,"Plant response rating, Johnsongrass",johnsongrass; [1],0
same,"Plant response rating, Johnsongrass",johnsongrass; [2],0
same,"Plant response rating, Johnsongrass",johnsongrass; [3],0
same,"Plant response rating, Johnsongrass",johnsongrass; [4],5
same,Johnsongrass plant response rating,johnsongrass; [5],0
same,"Plant response rating, Johnsongrass",johnsongrass; [6],0
same,"Plant response rating, Johnsongrass",johnsongrass; [7],30
same,"Plant response rating (scale of 0 to 100), Johnsongrass","johnsongrass; Preemergence, 250 g ai/ha",70
same,"Plant response rating, Velvetleaf",velvetleaf; [1],0
same,"Plant response rating, Velvetleaf",velvetleaf; [2],0
same,"Plant response rating, Velvetleaf",velvetleaf; [3],15
same,"Plant response rating, Velvetleaf",velvetleaf; [4],20
same,Velvetleaf plant response rating,velvetleaf; [5],0
same,"Plant response rating, Velvetleaf",velvetleaf; [6],15
same,"Plant response rating, Velvetleaf",velvetleaf; [7],40
same,"Plant response rating (scale of 0 to 100), Velvetleaf","velvetleaf; Preemergence, 250 g ai/ha",50
O=C1NCC(c2cccc(C(F)F)c2)C1C(=O)Nc1cccc(F)c1F (racemic) [Compound 211],Wheat plant response rating,wheat (winter wheat); [5],0
same,Wheat plant response rating,wheat (winter wheat); [8],0
same,"Plant response rating, Wheat",wheat (winter wheat); [7],30
same,"Plant response rating (scale of 0 to 100), Wheat","wheat (winter wheat); Preemergence, 250 g ai/ha",45
same,Waterhemp plant response rating,waterhemp; [5],85
same,Waterhemp plant response rating,waterhemp; [8],75
same,"Plant response rating, Waterhemp",waterhemp; [7],100
same,"Plant response rating (scale of 0 to 100), Waterhemp","waterhemp; Preemergence, 250 g ai/ha",90
same,Morningglory plant response rating,morningglory; [5],0
same,Morningglory plant response rating,morningglory; [8],0
same,"Plant response rating, Morningglory",morningglory; [7],0
same,"Plant response rating (scale of 0 to 100), Morningglory","morningglory; Preemergence, 250 g ai/ha",0
same,Johnsongrass plant response rating,johnsongrass; [5],0
same,Johnsongrass plant response rating,johnsongrass; [8],0
same,"Plant response rating, Johnsongrass",johnsongrass; [7],30
same,"Plant response rating (scale of 0 to 100), Johnsongrass","johnsongrass; Preemergence, 250 g ai/ha",65
same,Velvetleaf plant response rating,velvetleaf; [5],0
same,Velvetleaf plant response rating,velvetleaf; [8],10
same,"Plant response rating, Velvetleaf",velvetleaf; [7],30
same,"Plant response rating (scale of 0 to 100), Velvetleaf","velvetleaf; Preemergence, 250 g ai/ha",35
O=C1NCC(c2ccc(C(F)(F)F)cc2)C1C(=O)Nc1ccccc1Cl (stereo not shown) [Compound 233],Wheat plant response rating,wheat (winter wheat); [5],0
same,Wheat plant response rating,wheat (winter wheat); [8],0
same,"Plant response rating, Wheat",wheat (winter wheat); [7],0
same,"Plant response rating (scale of 0 to 100), Wheat","wheat (winter wheat); Preemergence, 250 g ai/ha",0
same,Waterhemp plant response rating,waterhemp; [5],95
same,Waterhemp plant response rating,waterhemp; [8],80
same,"Plant response rating, Waterhemp",waterhemp; [7],85
same,"Plant response rating (scale of 0 to 100), Waterhemp","waterhemp; Preemergence, 250 g ai/ha",95
same,Morningglory plant response rating,morningglory; [5],0
same,Morningglory plant response rating,morningglory; [8],0
same,"Plant response rating, Morningglory",morningglory; [7],20
same,"Plant response rating (scale of 0 to 100), Morningglory","morningglory; Preemergence, 250 g ai/ha",20
same,Johnsongrass plant response rating,johnsongrass; [5],0
same,Johnsongrass plant response rating,johnsongrass; [8],0
same,"Plant response rating, Johnsongrass",johnsongrass; [7],20
same,"Plant response rating (scale of 0 to 100), Johnsongrass","johnsongrass; Preemergence, 250 g ai/ha",45
same,Velvetleaf plant response rating,velvetleaf; [5],15
same,Velvetleaf plant response rating,velvetleaf; [8],25
same,"Plant response rating, Velvetleaf",velvetleaf; [7],45
same,"Plant response rating (scale of 0 to 100), Velvetleaf","velvetleaf; Preemergence, 250 g ai/ha",45
O=C(Nc1ccccc1F)C1C(=S)NCC1c1cccc(C(F)(F)F)c1 (stereo not shown) [Compound 274],Wheat plant response rating,wheat (winter wheat); [5],0
same,Wheat plant response rating,wheat (winter wheat); [8],0
same,"Plant response rating (scale of 0 to 100), Wheat","wheat (winter wheat); Preemergence, 250 g ai/ha",40
same,Waterhemp plant response rating,waterhemp; [5],0
same,Waterhemp plant response rating,waterhemp; [8],0
same,"Plant response rating (scale of 0 to 100), Waterhemp","waterhemp; Preemergence, 250 g ai/ha",0
same,Morningglory plant response rating,morningglory; [5],0
same,Morningglory plant response rating,morningglory; [8],0
same,"Plant response rating, Morningglory",morningglory; [7],0
same,"Plant response rating (scale of 0 to 100), Morningglory","morningglory; Preemergence, 250 g ai/ha",0
same,Johnsongrass plant response rating,johnsongrass; [5],0
same,Johnsongrass plant response rating,johnsongrass; [8],0
same,"Plant response rating, Johnsongrass",johnsongrass; [7],0
same,"Plant response rating (scale of 0 to 100), Johnsongrass","johnsongrass; Preemergence, 250 g ai/ha",30
same,Velvetleaf plant response rating,velvetleaf; [5],0
same,Velvetleaf plant response rating,velvetleaf; [8],20
same,"Plant response rating, Velvetleaf",velvetleaf; [7],20
same,"Plant response rating (scale of 0 to 100), Velvetleaf","velvetleaf; Preemergence, 250 g ai/ha",20
CN1CC(c2ccc(C(F)(F)F)cc2)C(C(=O)Nc2ccccc2F)C1=O (stereo not shown) [Compound 304],"Plant response rating, Wheat",wheat (winter wheat); [9],0
same,"Plant response rating, Wheat",wheat (winter wheat); [1],0
same,"Plant response rating, Wheat",wheat (winter wheat); [2],0
same,"Plant response rating, Wheat",wheat (winter wheat); [3],0
same,Wheat plant response rating,wheat (winter wheat); [5],40
same,Wheat plant response rating,wheat (winter wheat); [8],50
same,"Plant response rating, Wheat",wheat (winter wheat); [10],5
same,"Plant response rating, Waterhemp",waterhemp; [9],40
same,"Plant response rating, Waterhemp",waterhemp; [1],50
same,"Plant response rating, Waterhemp",waterhemp; [2],65
same,"Plant response rating, Waterhemp",waterhemp; [3],80
same,Waterhemp plant response rating,waterhemp; [5],75
same,Waterhemp plant response rating,waterhemp; [8],80
same,"Plant response rating, Waterhemp",waterhemp; [7],85
same,"Plant response rating, Waterhemp",waterhemp; [10],70
same,"Plant response rating, Morningglory",morningglory; [9],20
same,"Plant response rating, Morningglory",morningglory; [1],50
same,"Plant response rating, Morningglory",morningglory; [2],20
same,"Plant response rating, Morningglory",morningglory; [3],45
same,Morningglory plant response rating,morningglory; [5],5
same,Morningglory plant response rating,morningglory; [8],50
same,"Plant response rating, Morningglory",morningglory; [7],40
same,"Plant response rating, Morningglory",morningglory; [10],0
same,"Plant response rating, Johnsongrass",johnsongrass; [9],0
same,"Plant response rating, Johnsongrass",johnsongrass; [1],0
same,"Plant response rating, Johnsongrass",johnsongrass; [2],0
same,"Plant response rating, Johnsongrass",johnsongrass; [3],0
same,Johnsongrass plant response rating,johnsongrass; [5],0
same,Johnsongrass plant response rating,johnsongrass; [8],35
same,"Plant response rating, Johnsongrass",johnsongrass; [7],35
same,"Plant response rating, Johnsongrass",johnsongrass; [10],0
same,"Plant response rating, Velvetleaf",velvetleaf; [9],0
same,"Plant response rating, Velvetleaf",velvetleaf; [1],5
same,"Plant response rating, Velvetleaf",velvetleaf; [2],15
same,"Plant response rating, Velvetleaf",velvetleaf; [3],15
same,Velvetleaf plant response rating,velvetleaf; [5],20
same,Velvetleaf plant response rating,velvetleaf; [8],35
same,"Plant response rating, Velvetleaf",velvetleaf; [7],50
same,"Plant response rating, Velvetleaf",velvetleaf; [10],0
O=C1NCC(c2cccc(Br)c2)C1C(=O)Nc1ccccc1F (stereo not shown) [Compound 307],Wheat plant response rating,wheat (winter wheat); [8],0
same,"Plant response rating, Wheat",wheat (winter wheat); [11],5
same,"Plant response rating (scale of 0 to 100), Wheat","wheat (winter wheat); Preemergence, 250 g ai/ha",15
same,Waterhemp plant response rating,waterhemp; [8],0
same,"Plant response rating, Waterhemp",waterhemp; [11],0
same,"Plant response rating (scale of 0 to 100), Waterhemp","waterhemp; Preemergence, 250 g ai/ha",0
same,Morningglory plant response rating,morningglory; [5],0
same,Morningglory plant response rating,morningglory; [8],0
same,"Plant response rating, Morningglory",morningglory; [11],0
same,"Plant response rating (scale of 0 to 100), Morningglory","morningglory; Preemergence, 250 g ai/ha",0
same,Johnsongrass plant response rating,johnsongrass; [5],0
same,Johnsongrass plant response rating,johnsongrass; [8],0
same,"Plant response rating, Johnsongrass",johnsongrass; [11],0
same,"Plant response rating (scale of 0 to 100), Johnsongrass","johnsongrass; Preemergence, 250 g ai/ha",45
same,Velvetleaf plant response rating,velvetleaf; [8],0
same,"Plant response rating, Velvetleaf",velvetleaf; [11],0
same,"Plant response rating (scale of 0 to 100), Velvetleaf","velvetleaf; Preemergence, 250 g ai/ha",0
